For assay [1], the target named is Calcium/calmodulin-dependent protein kinase type 1D (Homo sapiens) (UniProt Q8IU85).
The target in assay [2] is Calcium/calmodulin-dependent protein kinase type 1G (Homo sapiens) (UniProt Q96NX5).
Assay [3] has as its target Cyclin-dependent kinase 6 (Homo sapiens) (UniProt Q00534).
In assay [4] the target is Dual specificity protein kinase CLK1 (Homo sapiens) (UniProt P49759).
Assay [5] concerns the target Death-associated protein kinase 3 (Homo sapiens) (UniProt O43293).
Assay [6] has as its target Dual specificity mitogen-activated protein kinase kinase 2 (Homo sapiens, UniProt P36507).
For assay [7], the target named is Mitogen-activated protein kinase 3 (Homo sapiens, UniProt P27361).
The target of assay [8] is T1, Serine/threonine-protein kinase Nek2 (Homo sapiens) (UniProt P51955).
T1 sequence (whole entry): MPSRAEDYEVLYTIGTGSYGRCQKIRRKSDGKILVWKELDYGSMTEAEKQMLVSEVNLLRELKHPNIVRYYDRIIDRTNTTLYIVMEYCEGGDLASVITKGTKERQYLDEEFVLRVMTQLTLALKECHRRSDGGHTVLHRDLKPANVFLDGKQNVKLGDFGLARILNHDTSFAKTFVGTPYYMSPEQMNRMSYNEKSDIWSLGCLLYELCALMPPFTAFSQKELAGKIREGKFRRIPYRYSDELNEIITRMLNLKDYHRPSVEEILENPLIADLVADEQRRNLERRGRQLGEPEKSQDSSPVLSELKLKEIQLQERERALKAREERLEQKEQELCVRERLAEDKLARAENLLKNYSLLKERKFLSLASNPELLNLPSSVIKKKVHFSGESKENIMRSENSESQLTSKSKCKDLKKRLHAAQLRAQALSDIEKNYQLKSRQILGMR

The target in assay [9] is Serine/threonine-protein kinase Nek6 (Homo sapiens) (UniProt Q9HC98).
Serine/threonine-protein kinase Nek6 (Homo sapiens), sequence (Q9HC98 whole entry): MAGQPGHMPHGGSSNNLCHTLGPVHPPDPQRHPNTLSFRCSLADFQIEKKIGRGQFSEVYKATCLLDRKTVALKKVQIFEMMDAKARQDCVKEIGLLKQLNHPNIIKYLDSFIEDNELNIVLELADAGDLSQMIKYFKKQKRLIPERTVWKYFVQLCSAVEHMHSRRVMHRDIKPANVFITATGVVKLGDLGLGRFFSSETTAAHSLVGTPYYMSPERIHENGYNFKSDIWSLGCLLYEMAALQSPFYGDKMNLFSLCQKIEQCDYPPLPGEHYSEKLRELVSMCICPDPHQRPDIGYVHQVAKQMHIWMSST
The target of assay [10] is Serine/threonine-protein kinase OSR1 (Homo sapiens) (UniProt O95747).
Serine/threonine-protein kinase OSR1 (Homo sapiens), sequence (O95747 2-527 limits assumed): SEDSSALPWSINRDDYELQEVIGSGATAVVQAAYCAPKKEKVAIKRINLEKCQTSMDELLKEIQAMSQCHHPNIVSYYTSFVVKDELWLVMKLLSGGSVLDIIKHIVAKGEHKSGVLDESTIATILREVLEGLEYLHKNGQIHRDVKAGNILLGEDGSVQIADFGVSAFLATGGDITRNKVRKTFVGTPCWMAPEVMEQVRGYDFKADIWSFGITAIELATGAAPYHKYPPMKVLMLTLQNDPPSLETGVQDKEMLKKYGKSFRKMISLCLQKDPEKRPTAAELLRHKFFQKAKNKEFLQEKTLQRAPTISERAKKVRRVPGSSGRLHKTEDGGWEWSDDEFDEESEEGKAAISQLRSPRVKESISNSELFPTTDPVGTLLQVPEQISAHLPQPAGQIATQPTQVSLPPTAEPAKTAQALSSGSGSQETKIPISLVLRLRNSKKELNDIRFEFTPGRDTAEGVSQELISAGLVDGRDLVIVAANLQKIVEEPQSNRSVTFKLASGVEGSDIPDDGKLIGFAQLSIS
The target of assay [11] is T2, 3-phosphoinositide-dependent protein kinase 1 (Homo sapiens) (UniProt O15530).
T2 sequence (whole entry): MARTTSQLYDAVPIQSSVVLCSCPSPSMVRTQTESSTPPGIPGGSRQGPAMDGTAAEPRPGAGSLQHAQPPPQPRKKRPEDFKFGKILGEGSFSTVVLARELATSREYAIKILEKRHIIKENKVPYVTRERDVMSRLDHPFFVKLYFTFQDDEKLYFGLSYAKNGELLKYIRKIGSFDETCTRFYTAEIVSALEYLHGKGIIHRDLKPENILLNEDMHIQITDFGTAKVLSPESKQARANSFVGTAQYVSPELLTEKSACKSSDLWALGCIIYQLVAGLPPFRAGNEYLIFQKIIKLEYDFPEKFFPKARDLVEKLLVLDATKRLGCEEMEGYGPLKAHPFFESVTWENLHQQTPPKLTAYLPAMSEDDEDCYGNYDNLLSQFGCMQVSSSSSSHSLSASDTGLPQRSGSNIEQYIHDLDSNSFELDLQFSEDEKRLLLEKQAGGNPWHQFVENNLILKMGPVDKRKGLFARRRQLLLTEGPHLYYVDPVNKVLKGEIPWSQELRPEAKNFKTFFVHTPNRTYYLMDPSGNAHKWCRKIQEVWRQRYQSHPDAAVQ

The target in assay [12] is cAMP-dependent protein kinase catalytic subunit alpha (Homo sapiens) (UniProt P17612).
The target of assay [13] is Serine/threonine-protein kinase RIO2 (Homo sapiens) (UniProt Q9BVS4).
Serine/threonine-protein kinase RIO2 (Homo sapiens), sequence (Q9BVS4 whole entry, looked up): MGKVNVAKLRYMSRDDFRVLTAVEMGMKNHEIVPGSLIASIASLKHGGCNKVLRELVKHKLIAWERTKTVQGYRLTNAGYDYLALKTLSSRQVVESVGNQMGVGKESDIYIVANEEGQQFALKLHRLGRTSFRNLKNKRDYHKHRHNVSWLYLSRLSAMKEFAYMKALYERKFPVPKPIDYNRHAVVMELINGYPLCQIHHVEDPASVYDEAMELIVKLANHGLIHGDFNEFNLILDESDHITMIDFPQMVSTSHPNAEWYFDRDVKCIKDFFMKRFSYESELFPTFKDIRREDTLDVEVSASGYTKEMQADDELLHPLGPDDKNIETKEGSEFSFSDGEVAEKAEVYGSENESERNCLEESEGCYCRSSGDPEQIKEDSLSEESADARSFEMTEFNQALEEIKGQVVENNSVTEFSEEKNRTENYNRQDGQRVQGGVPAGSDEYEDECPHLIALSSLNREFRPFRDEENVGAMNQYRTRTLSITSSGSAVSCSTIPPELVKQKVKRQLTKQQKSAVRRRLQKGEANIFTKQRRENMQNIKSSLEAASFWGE
Assay [14] deals with Ribosomal protein S6 kinase alpha-3 (Homo sapiens) (UniProt P51812).
The target in assay [15] is STE20-like serine/threonine-protein kinase (Homo sapiens) (UniProt Q9H2G2).
STE20-like serine/threonine-protein kinase (Homo sapiens), sequence (Q9H2G2 whole entry, looked up): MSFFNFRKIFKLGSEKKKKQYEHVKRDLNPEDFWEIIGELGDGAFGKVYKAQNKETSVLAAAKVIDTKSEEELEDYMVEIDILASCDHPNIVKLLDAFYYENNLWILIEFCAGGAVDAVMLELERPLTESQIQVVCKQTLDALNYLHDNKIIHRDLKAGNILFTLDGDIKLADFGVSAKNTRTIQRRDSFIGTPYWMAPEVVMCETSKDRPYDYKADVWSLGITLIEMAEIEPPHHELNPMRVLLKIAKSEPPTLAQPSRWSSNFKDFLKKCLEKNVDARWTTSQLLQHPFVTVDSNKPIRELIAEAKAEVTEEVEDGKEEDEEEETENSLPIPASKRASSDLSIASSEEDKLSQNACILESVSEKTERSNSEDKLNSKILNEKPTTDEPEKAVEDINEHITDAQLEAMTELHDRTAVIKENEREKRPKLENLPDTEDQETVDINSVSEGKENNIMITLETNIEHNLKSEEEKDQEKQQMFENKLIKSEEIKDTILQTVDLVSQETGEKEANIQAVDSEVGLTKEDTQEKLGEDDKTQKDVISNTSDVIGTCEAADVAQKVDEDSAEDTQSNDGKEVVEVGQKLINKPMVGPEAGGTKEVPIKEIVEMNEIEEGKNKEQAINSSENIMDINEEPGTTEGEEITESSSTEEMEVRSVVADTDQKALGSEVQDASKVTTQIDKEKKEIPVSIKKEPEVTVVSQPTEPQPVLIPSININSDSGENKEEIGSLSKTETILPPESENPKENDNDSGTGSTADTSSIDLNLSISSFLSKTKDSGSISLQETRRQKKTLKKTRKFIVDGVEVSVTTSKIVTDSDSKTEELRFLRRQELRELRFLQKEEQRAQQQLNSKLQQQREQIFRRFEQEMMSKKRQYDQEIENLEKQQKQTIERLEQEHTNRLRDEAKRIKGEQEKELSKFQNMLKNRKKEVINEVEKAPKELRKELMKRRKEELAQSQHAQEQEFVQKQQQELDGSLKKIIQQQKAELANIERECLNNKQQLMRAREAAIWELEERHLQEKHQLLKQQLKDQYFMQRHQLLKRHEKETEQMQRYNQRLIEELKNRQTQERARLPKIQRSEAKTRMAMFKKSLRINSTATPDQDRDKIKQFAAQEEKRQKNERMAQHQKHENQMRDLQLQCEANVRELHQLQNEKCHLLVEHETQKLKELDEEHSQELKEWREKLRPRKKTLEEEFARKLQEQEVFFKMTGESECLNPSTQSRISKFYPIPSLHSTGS
Assay [16] concerns the target Serine/threonine-protein kinase 16 (Homo sapiens) (UniProt O75716).
Assay [17] concerns the target Serine/threonine-protein kinase 38 (Homo sapiens) (UniProt Q15208).
Assay [18] concerns the target T3, Serine/threonine-protein kinase 4 (Homo sapiens) (UniProt Q13043).
T3 sequence (whole entry): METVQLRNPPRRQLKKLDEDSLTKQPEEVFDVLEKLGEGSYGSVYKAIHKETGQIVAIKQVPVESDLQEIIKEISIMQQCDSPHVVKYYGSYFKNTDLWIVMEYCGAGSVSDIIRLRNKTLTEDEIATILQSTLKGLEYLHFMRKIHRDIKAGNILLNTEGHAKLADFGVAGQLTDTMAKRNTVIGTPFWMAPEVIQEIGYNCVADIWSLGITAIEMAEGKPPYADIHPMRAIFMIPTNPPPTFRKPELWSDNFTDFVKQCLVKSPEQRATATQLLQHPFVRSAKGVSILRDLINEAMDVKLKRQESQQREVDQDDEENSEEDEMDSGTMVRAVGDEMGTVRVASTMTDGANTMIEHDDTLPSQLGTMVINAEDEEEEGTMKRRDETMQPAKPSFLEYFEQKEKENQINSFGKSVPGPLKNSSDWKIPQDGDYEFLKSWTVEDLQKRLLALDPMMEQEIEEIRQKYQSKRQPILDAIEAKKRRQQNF

In assay [19] the target is T4, Lymphokine-activated killer T-cell-originated protein kinase (Homo sapiens) (UniProt Q96KB5).
T4 sequence (whole entry): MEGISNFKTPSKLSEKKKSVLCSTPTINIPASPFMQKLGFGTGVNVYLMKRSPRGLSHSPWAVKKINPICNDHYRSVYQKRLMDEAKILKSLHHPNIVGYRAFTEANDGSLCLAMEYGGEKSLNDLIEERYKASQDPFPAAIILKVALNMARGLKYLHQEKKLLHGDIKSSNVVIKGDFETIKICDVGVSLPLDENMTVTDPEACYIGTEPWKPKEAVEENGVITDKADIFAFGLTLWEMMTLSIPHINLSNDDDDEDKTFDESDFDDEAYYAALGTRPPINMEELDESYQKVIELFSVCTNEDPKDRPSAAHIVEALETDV

In assay [20] the target is Serine/threonine-protein kinase VRK2 (Homo sapiens) (UniProt Q86Y07).
Serine/threonine-protein kinase VRK2 (Homo sapiens), sequence (Q86Y07 whole entry): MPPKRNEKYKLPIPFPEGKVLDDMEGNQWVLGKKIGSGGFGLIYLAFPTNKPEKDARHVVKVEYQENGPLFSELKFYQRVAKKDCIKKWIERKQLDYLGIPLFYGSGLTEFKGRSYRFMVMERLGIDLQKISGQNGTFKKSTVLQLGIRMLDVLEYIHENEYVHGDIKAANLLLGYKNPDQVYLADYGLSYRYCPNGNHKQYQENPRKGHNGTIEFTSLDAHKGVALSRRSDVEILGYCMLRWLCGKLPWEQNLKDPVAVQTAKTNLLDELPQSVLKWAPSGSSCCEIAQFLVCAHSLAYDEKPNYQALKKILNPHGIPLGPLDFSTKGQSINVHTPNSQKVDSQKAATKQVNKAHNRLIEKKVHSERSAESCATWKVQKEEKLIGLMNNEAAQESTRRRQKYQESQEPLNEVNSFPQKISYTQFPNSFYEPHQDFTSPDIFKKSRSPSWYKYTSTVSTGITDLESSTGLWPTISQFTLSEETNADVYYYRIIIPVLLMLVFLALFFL
The target in assay [21] is Serine/threonine-protein kinase 25 (Homo sapiens) (UniProt O00506).
Serine/threonine-protein kinase 25 (Homo sapiens), sequence (O00506 whole entry, looked up): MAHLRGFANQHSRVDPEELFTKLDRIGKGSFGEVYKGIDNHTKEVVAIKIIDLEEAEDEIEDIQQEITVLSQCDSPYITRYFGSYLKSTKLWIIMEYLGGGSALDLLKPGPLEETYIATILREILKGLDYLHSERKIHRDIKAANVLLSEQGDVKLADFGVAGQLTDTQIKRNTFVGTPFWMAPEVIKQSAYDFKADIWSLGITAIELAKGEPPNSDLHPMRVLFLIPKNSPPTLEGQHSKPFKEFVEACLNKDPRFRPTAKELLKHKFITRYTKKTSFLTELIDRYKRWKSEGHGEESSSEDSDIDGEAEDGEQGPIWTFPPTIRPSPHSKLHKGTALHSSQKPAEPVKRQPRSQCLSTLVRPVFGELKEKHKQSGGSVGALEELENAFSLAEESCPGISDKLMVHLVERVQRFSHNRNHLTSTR

Serine/threonine-protein kinase 16 (Homo sapiens), sequence (O75716 whole entry): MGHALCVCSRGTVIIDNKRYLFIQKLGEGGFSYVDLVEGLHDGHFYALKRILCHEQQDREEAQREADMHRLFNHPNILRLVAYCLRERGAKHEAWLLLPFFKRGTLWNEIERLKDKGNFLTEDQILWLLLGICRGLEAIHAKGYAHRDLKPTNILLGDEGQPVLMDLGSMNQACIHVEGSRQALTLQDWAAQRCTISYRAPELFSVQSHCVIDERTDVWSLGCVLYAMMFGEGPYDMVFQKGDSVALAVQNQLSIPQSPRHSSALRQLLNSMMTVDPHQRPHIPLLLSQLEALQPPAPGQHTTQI
Cyclin-dependent kinase 6 (Homo sapiens), sequence (Q00534 whole entry): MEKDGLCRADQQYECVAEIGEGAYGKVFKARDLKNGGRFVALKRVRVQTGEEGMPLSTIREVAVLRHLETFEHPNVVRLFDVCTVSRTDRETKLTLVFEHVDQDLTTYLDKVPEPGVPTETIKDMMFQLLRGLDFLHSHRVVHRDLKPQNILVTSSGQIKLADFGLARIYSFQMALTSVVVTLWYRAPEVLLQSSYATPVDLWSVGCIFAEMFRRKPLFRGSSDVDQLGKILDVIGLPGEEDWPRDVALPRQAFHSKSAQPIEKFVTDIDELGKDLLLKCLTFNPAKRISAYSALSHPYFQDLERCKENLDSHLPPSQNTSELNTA
Serine/threonine-protein kinase 38 (Homo sapiens), sequence (Q15208 2-465 limits assumed): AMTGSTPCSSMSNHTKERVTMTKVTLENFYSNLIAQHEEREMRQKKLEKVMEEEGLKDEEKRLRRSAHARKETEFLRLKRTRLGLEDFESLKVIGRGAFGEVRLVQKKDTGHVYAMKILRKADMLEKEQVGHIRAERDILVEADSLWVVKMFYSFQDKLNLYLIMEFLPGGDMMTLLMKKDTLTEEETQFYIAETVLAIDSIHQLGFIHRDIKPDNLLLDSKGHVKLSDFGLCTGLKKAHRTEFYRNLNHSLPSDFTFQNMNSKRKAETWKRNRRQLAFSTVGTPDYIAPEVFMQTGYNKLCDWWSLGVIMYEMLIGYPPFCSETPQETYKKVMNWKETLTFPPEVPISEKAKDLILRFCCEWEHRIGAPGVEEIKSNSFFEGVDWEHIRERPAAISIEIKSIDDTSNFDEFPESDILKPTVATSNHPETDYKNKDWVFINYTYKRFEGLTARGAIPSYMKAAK

Take `CC(=O)O/N=C1/C(=C2/C(=O)Nc3cc(Br)ccc32)Nc2ccccc21` [6-BROMOINDIRUBIN-3'-ACETOXIME]: the ΔTm in [1] is -1.4 °C; in [2], -0.6 °C; in [3] it was 2.8 °C; in [4] it was -0.3 °C; in assay [5] it was -1.3 °C; in [6], 3.1 °C. For the same molecule, the shift in melting temperature (ΔTm) is 0 °C in assay [7]; 1.9 °C in assay [8]; 0.7 °C in assay [9]; -1.1 °C in assay [10]; 0.8 °C in assay [11]; 3 °C in assay [12]. Also, the ΔTm in [13] amounted to 1.7 °C; in [14], 2.5 °C; in assay [15] it was 2.1 °C; in [16] it was 1.7 °C; in assay [17] it was 0.9 °C; in assay [18] it was 3.5 °C. Besides, the values for the thermal shift (ΔTm) in [19], in assay [20] and in [21] were -0.3 °C, 0.6 °C and 1.1 °C, respectively.
For the molecule `CCOC(=O)c1c(C)[nH]c(/C=C2\C(=O)Nc3ccccc32)c1C`, the ΔTm is 0 °C in [1]; -1.3 °C in assay [2]; -5 °C in assay [3]; -1.1 °C in assay [4]; 0 °C in assay [5]; 0.4 °C in [6]. Further, the ΔTm in assay [7] is -0.4 °C; in assay [8], 0.5 °C; in [9] it was 0.1 °C; in assay [10], -0.1 °C; in assay [11], 0.2 °C; in assay [12], -1.6 °C. For the same molecule, the ΔTm is -8.9 °C in [13]; 3 °C in [14]; 1.6 °C in assay [15]; 0.6 °C in assay [16]; -0.1 °C in assay [17]; 3 °C in [18]. Besides, the shift in melting temperature (ΔTm) in assay [19] was 0.3 °C; in assay [20] it was 0.2 °C; in assay [21] it was 0.6 °C.
In the case of `COc1cc(/C=C/C(=O)CC(=O)/C=C/c2ccc(O)c(OC)c2)ccc1O` [CURCUMIN], the thermal shift (ΔTm) in assay [1] came out at 2 °C; in assay [2], 1.3 °C; in [3] it was 2.1 °C; in [4] it was 7.9 °C; in assay [5], 1.8 °C; in assay [6], 2.8 °C. Further, the shift in melting temperature (ΔTm) came out at 0.8 °C in [7]; 1.1 °C in assay [8]; 0.9 °C in assay [9]; 3.7 °C in assay [10]; 0.2 °C in [11]; 3.4 °C in assay [12]. For the same molecule, the ΔTm in [13] worked out at 2.8 °C; in assay [14] it was 3.4 °C; in assay [15], 3.2 °C; in [16], 0.9 °C; in [17] it was 2.5 °C; in assay [18], 5.5 °C. The ΔTm was 0.7 °C in assay [19], 1.4 °C in assay [20] and 4.4 °C in assay [21].
Consider `O=C1c2ccccc2-[n+]2ccc3c([nH]c4ccccc43)c21` [FASCAPLYSIN CHLORIDE], for which the ΔTm was -4.3 °C in assay [1]; -3.5 °C in assay [2]; 0.2 °C in assay [3]; -1.9 °C in [4]; -0.5 °C in [5]; -0.8 °C in [6]. The ΔTm is 0.3 °C in assay [7]; -2 °C in [8]; -0.1 °C in assay [9]; -1.5 °C in [10]; -2.7 °C in assay [11]; 0.6 °C in assay [12]. Besides, the thermal shift (ΔTm) was -0.9 °C in [13]; -0.1 °C in assay [14]; -0.9 °C in [15]; -0.1 °C in assay [16]; -0.5 °C in assay [17]; -1.6 °C in assay [18]. Also, the shift in melting temperature (ΔTm) was 0.6 °C in assay [19], -0.8 °C in assay [20] and -1.5 °C in assay [21].
On to `CC(C)(C)n1nc(-c2ccc(Cl)cc2)c2c(N)ncnc21`, for which the ΔTm is -0.2 °C in [1]; 0 °C in [2]; -0.4 °C in assay [3]; 2.1 °C in assay [4]; -1.1 °C in [5]; 3.3 °C in [6]. In addition, the ΔTm in assay [7] was 0 °C; in assay [8] it was 0.3 °C; in assay [9] it was 0.2 °C; in assay [10], 1.2 °C; in [11] it was -0.1 °C; in assay [12], 2.3 °C. The ΔTm came to 3.1 °C in [13]; 2.1 °C in [14]; 3.6 °C in [15]; 1 °C in [16]; 0.7 °C in assay [17]; 2.1 °C in assay [18]. Moreover, the thermal shift (ΔTm) in [19] was determined as 0.7 °C; in [20] it was 0.3 °C; in [21], 1.2 °C.
For the molecule `CN(C)CCCn1cc(C2=C(c3c[nH]c4ccccc34)C(=O)NC2=O)c2ccccc21` [GF-109203], the ΔTm in assay [1] amounted to 1.1 °C; in assay [2], 0.6 °C; in [3] it was 0.4 °C; in assay [4], 6.3 °C; in assay [5] it was 2.8 °C; in assay [6], 0.1 °C. For the same molecule, the thermal shift (ΔTm) in [7] was 0.6 °C; in [8] it was 0.7 °C; in [9] it was 0.9 °C; in [10] it was 2.4 °C; in assay [11], -0.2 °C; in assay [12], 3.6 °C. Besides, the ΔTm in [13] was found to be 0.3 °C; in assay [14], 7.8 °C; in [15] it was 6.8 °C; in assay [16], 2.1 °C; in [17], 0.3 °C; in [18], 5.7 °C. Further, the ΔTm in [19] came to 0.2 °C; in assay [20], 0.9 °C; in assay [21] it was 2.7 °C.

The values are drawn from ChEMBL document CHEMBL1145498, “A systematic interaction map of validated kinase inhibitors with Ser/Thr kinases” (Proc Natl Acad Sci U S A, 2007).
